These are literature values, as cited in patent publication US8580245B2, “Compositions and methods for treating and preventing cardiomyopathy and heart disease” (The Regents of the University of Michigan, priority 2005, dated 2013).

The test system of this series is elderly men with isolated diastolic dysfunction. Particulars: verapamil vs placebo, 20 elderly men, p<0.05.

As for `COc1ccc(CCN(C)CCCC(C#N)(c2ccc(OC)c(OC)c2)C(C)C)cc1OC` (stereo not shown) [verapamil], the exercise time increase is on record as 33%, the heart rate decrease is listed as 10%, the “peak left ventricular filling rate increase” value is listed as 30% and the symptoms entry was “improved”.
